Measurements from patent US20050037923A1, “Herbicidal mixture based on 7-pyrazolybenzoxazoles” (BASF Aktiengesellschaft, priority 2001, published 2005).

Key:
COMBE = experiment: Greenhouse test, post-emergence herbicidal action; assay type: in vivo, tropical spiderwort; conditions: 21 days
Source text: (§1) For the post-emergence treatment, the test plants were first grown to a height of 3 to 20 cm, depending on the plant habit, and only then treated. Here, the herbicidal compositions were suspended or emulsified in water as distribution medium and sprayed using finely distributing nozzles.
(§2) The respective components A and B and/or C were formulated as 10% by weight strength emulsion concentrate and introduced to the spray liquor with the amount of solvent system used for applying the active compound. In the examples, the solvent used was water.
(§3) The test period extended over 21 days. During this time, the plants were tended, and their response to the treatments with active compound was evaluated.
(§4) The evaluation for the damage caused by the chemical compositions was carried out using a scale from 0 to 100%, compared to the untreated control plants. Here, 0 means no damage and 100 means complete destruction of the plants.
(§5) In the examples below, the value E which is to be expected if the activity of the individual active compounds is just additive was calculated using the method of S. R. Colby (1967) “Calculating synergistic and antagonistic responses of herbicide combinations”, Weeds 15, p. 22 ff. E=X+Y—(X·Y/100) where • X=effect in percent using active compound A at an application rate a; • Y=effect in percent using active compound B at an application rate b; • E=expected effect (in %) of A+B at application rates a+b.
(§6) The plants used in the greenhouse experiments were of the following species: […]

POLPE = experiment: Greenhouse test, post-emergence herbicidal action; assay type: in vivo, ladysthumb
Source text: as §1, §2, §3, §4, §5, §6

BIDPI = experiment: Greenhouse test, post-emergence herbicidal action; assay type: in vivo, hairy beggarticks
Source text: as §1, §2, §3, §4, §5, §6

ECHCG = experiment: Greenhouse test, post-emergence herbicidal action; assay type: in vivo, barnyardgrass
Source text: as §1, §2, §3, §4, §5, §6

GALAP = experiment: Greenhouse test, post-emergence herbicidal action; assay type: in vivo, catchweed bedstraw
Source text: as §1, §2, §3, §4, §5, §6

AVEFA = experiment: Greenhouse test, post-emergence herbicidal action; assay type: in vivo, wild oat
Source text: as §1, §2, §3, §4, §5, §6

THLAR = experiment: Greenhouse test, pre-emergence herbicidal action; assay type: in vivo, fanweed; conditions: application rate 250 g/ha
Source text: For the pre-emergence treatment, the test plants were sown is pots 1-2 days later, i.e. prior to germination, the pots were sprayed with the finely distributed herbicidal compositions, which had been suspended in water.
as §2, §3, §4, §5, §6

SETVI = experiment: Greenhouse test, post-emergence herbicidal action; assay type: in vivo, green foxtail; conditions: application rate 15.63 g/ha
Source text: as §1, §2, §3, §4, §5, §6

SETFA = experiment: Greenhouse test, post-emergence herbicidal action; assay type: in vivo, giant foxtail; conditions: 21 days
Source text: as §1, §2, §3, §4, §5, §6

[1] = application rate 15.63 g/ha, 21 days
[2] = application rate 31.25 g/ha, 21 days
[3] = application rate 125 g/ha (Example 32)
[4] = application rate 250 g/ha (Example 32)
[5] = application rate 7.81 g/ha, 21 days
[6] = application rate 62.5 g/ha (Example 24)
[7] = application rate 125 g/ha (Example 24)

In the case of `Cc1cnc(C2=NC(=O)C(C)(C(C)C)N2)c(C(=O)O)c1` (centres unmarked) [imazapic, reference compound], the “Herbicidal action against COMBE, Found” value (COMBE; application rate 15.63 g/ha) is reported as 0%, the “Herbicidal action against COMBE, Found” value (COMBE; application rate 31.25 g/ha) is reported as 40% and the “Herbicidal action against POLPE, Found” value (POLPE; [1]) is reported as 75%. The “Herbicidal action against POLPE, Found” value (POLPE; [2]) was 80%.
With `CCc1cnc(C2=NC(C)(C(C)C)C(=O)N2)c(C(=O)O)c1` (centres unmarked) [imazethapyr, reference compound] the “Herbicidal action against COMBE, Found” value (COMBE; application rate 15.63 g/ha) was 20%, the “Herbicidal action against COMBE, Found” value (COMBE; application rate 31.25 g/ha) was 40% and the “Herbicidal action against POLPE, Found” value (POLPE; [1]) was 40%. The “Herbicidal action against POLPE, Found” value (POLPE; [2]) was 60%.
In the case of `CC(C)c1ccc(NC(=O)N(C)C)cc1` [isoproturon], the “Herbicidal action against BIDPI, Found” value (BIDPI; application rate 62.5 g/ha) is reported as 30% and the “Herbicidal action against BIDPI, Found” value (BIDPI; application rate 125 g/ha) is reported as 60%.
For `CCC(C)(CC)c1cc(NC(=O)c2c(OC)cccc2OC)on1` [isoxaben], the “Herbicidal action against ECHCG, Found” value (ECHCG; [3]) was 0%, the “Herbicidal action against ECHCG, Found” value (ECHCG; [4]) was 0% and the “Herbicidal action against GALAP, Found” value (GALAP; [3]) was 0%. The “Herbicidal action against GALAP, Found” value (GALAP; [4]) was 0%.
For `CS(=O)(=O)c1ccc(C(=O)C2C(=O)CCCC2=O)c([N+](=O)[O-])c1` [mesotrione], the “Herbicidal action against ECHCG, Found” value (ECHCG; application rate 7.81 g/ha) was 45% and the “Herbicidal action against ECHCG, Found” value (ECHCG; application rate 15.63 g/ha) was 70%.
With `COc1cc(OC)nc(NC(=O)NS(=O)(=O)c2ncccc2C(=O)N(C)C)n1` [nicosulfuron] the “Herbicidal action against BIDPI, Found” value (BIDPI; application rate 3.91 g/ha (Example 26)) was 70% and the “Herbicidal action against BIDPI, Found” value (BIDPI; application rate 7.81 g/ha (Example 26)) was 80%.
With `C[n+]1ccc(-c2cc[n+](C)cc2)cc1` [paraquat] the “Herbicidal action against AVEFA, Found” value (AVEFA; application rate 62.5 g/ha) was 70% and the “Herbicidal action against AVEFA, Found” value (AVEFA; application rate 125 g/ha) was 80%.
In the case of `CCC(CC)Nc1c([N+](=O)[O-])cc(C)c(C)c1[N+](=O)[O-]` [pendimethalin], the “Herbicidal action against THLAR, Found” value (THLAR) is reported as 40%.
With `O=C(Nc1ccc(F)cc1)c1cccc(Oc2cccc(C(F)(F)F)c2)n1` [picolinafen] the “Herbicidal action against SETVI, Found” value (SETVI) was 40%.
With `CCCC(=NOCC(C)Oc1ccc(Cl)cc1)C1=C(O)CC(C2CCCSC2)CC1=O` (centres unmarked) [profoxydim, reference compound] the “Herbicidal action against GALAP, Found” value (GALAP; [5]) was 30% and the “Herbicidal action against GALAP, Found” value (GALAP; [1]) was 30%.
In the case of `CCCOc1nn(C(=O)[N-]S(=O)(=O)c2ccccc2C(=O)OC)c(=O)n1C.[Na+]` [propoxycarbazone sodium salt], the “Herbicidal action against BIDPI, Found” value (BIDPI; application rate 3.91 g/ha (Example 27)) is reported as 30% and the “Herbicidal action against BIDPI, Found” value (BIDPI; application rate 7.81 g/ha (Example 27)) is reported as 40%.
With `CCOC(=O)c1cnn(C)c1S(=O)(=O)NC(=O)Nc1nc(OC)cc(OC)n1` [pyrazosulfuron-ethyl, reference compound] the “Herbicidal action against POLPE, Found” value (POLPE; [1]) was 40%, the “Herbicidal action against POLPE, Found” value (POLPE; [2]) was 55% and the “Herbicidal action against AVEFA, Found” value (AVEFA; [1]) was 0%. For the same molecule, the “Herbicidal action against AVEFA, Found” value (AVEFA; [2]) was 10%.
For `O=C(O)c1c(Cl)ccc2cc(Cl)cnc12` [quinclorac], the “Herbicidal action against ECHCG, Found” value (ECHCG; [6]) was 10%, the “Herbicidal action against ECHCG, Found” value (ECHCG; [7]) was 10% and the “Herbicidal action against POLPE, Found” value (POLPE; [6]) was 15%. The “Herbicidal action against POLPE, Found” value (POLPE; [7]) was 15%.
With `CC/C(=N\OC/C=C/Cl)C1=C(O)CC(C2CCOCC2)CC1=O` (centres unmarked) [tepraloxydim, reference compound] the “Herbicidal action against SETFA, Found” value (SETFA; application rate 7.81 g/ha) was 70%, the “Herbicidal action against SETFA, Found” value (SETFA; application rate 15.63 g/ha) was 80% and the “Herbicidal action against AVEFA, Found” value (AVEFA; [5]) was 70%. For the same molecule, the “Herbicidal action against AVEFA, Found” value (AVEFA; [1]) was 80%.
